# Marks after values point to notes of the source that are not given here.
# Assays:
# [1] = Assessment of glutathione conjugation by radio-TLC in mouse tissues and fluids; settings: for Percentage of S-(6-(7-[^11C]methylpurinyl))glutathione in bile / Percentage of S-(6-(7-[^11C]methylpurinyl))glutathione in brain / Percentage of S-(6-(7-[^11C]methylpurinyl))glutathione in kidney / Percentage of S-(6-(7-[^11C]methylpurinyl))glutathione in liver / Percentage of S-(6-(7-[^11C]methylpurinyl))glutathione in urine: 15 min after i.v. injection; for Percentage of S-(6-(7-[^11C]methylpurinyl))glutathione in plasma: 15 min after i.v. injection of 6-bromo-7-[^11C]methylpurine, n=3
# Method: Assessment of Glutathione Conjugation
# 6-Bromo-7-[11C]methylpurine (26 ± 8 MBq in a volume of 0.1 ml, 0.15 ± 0.06 nmol) was administered i.v. to wild-type and Abcc1(-/-) mice (n = 3 per group) under isoflurane anesthesia.
# After a period of 15 min, blood was collected from the retro-bulbar plexus and animals were euthanized. Brain, liver, kidneys, urine and bile were collected. Blood was centrifuged to obtain plasma and proteins were precipitated by the addition of acetonitrile (1 µl per µl plasma). Liver, kidneys and brain were homogenized using an Ultra Turrax T10 (IKA Laboratory Equipment, Staufen, Germany) and proteins were precipitated with acetonitrile (1 ml per liver, 0.2 ml per kidneys/brain). Urine and bile were diluted with acetonitrile (1 µl per µl urine and bile). All solutions were vortexed and then centrifuged (12,000 x g, 1 min, 21°C). Each supernatant (plasma, brain, liver, kidney, urine, bile, 5 µl each) and diluted radiotracer solution as reference were spotted on silica gel 60F 254 nm TLC plates (10 x 20 cm; Merck, Darmstadt, Germany) and plates were developed in water/acetonitrile/acetic acid (92/8/1, v/v/v). Detection was performed by placing the TLC plates on multisensitive phosphor screens (Perkin-Elmer). […]
# [2] = set-up: method as in PMID 1976057; settings: rats ref 24; cited from earlier work
# [3] = MK571 concentrations in plasma and kidneys (HPLC); assay type: in vivo, mice; settings: mouse, intraperitoneal, 300 mg/kg
# Method: Assessment of Glutathione Conjugation […]
# euthanized. Brain, liver, kidneys, urine and bile were collected. Blood was centrifuged to obtain […]
# fluorescence detector (G1321 FLD). […]
# obtain a clear supernatant. The resulting supernatants were injected into the HPLC column.
# (5 µm, 100-4.6 mm) preceded by a Chromolith Performance RP-18 pre-column (5 µm, 10-4.6 mm), which was isocratically eluted with acetonitrile/methanol/0.1% aqueous acetic acid (30/20/50, v/v/v) at a flow rate of 2 ml/min. For fluorescence detection, an excitation wavelength of 250 nm and an emission wavelength of 410 nm were used. MK571 eluted with a retention time of 10.1 min. Linear calibration curves were generated by spiking drug-free mouse plasma […]
# average correlation coefficient: > 0.999).
# [4] = system: ABCC2; set-up: method as in PMID 12695538, PMID 10760098; settings: in vitro ref 20, 21; read-out: IC50 for inhibition of substrate transport by ABCC2; cited from earlier work
# [5] = system: ABCC4; set-up: method as in PMID 12695538, PMID 10760098; settings: in vitro ref 20, 21; read-out: IC50 for inhibition of substrate transport by ABCC4; cited from earlier work
# [6] = target: T1, Abcc1 (Mus musculus, UniProt O35379); test: 6-bromo-7-[^11C]methylpurine PET in Abcc1 knockout mice; assay type: in vivo
# T1 construct: from tissue; host or cells: living C57BL/6J mice (wild-type versus Abcc1 knockout), obtained from the University of Oslo
# Method: (§1) Groups of wild-type, Abcc4^(−/−), Abcc1^(−/−), and Abcc1^(+/−) mice underwent a baseline PET scan with 6-bromo-7-[^11C]methylpurine at 30 min after i.p. injection of vehicle solution (PBS). […] In addition, groups of wild-type and Abcc1^(−/−) mice were used to determine the percentage of unchanged 6-bromo-7-[^11C]methylpurine in different tissues and fluids.
# (§2) During all experimental procedures, animals were kept under isoflurane anesthesia. PET imaging was conducted on a microPET Focus220 scanner (Siemens Medical Solutions, Knoxville, TN, USA). […] Subsequently, 6-bromo-7-[^11C]methylpurine (29 ± 9 MBq in a volume of 0.1 ml, 0.17 ± 0.11 nmol) was administered as an i.v. bolus via the lateral tail vein, and a 90-min dynamic PET scan (energy window: 250–750 keV; timing window: 6 ns) was initiated at the start of radiotracer injection. […] Blood was centrifuged to obtain plasma and aliquots of blood and plasma were counted for radioactivity in a gamma counter (Wizard 1470; Perkin-Elmer, Waltham, MA, USA).
# (§3) The PET data were sorted into 25 frames with a duration increasing from 5 s to 20 min. Fourier re-binning of the three-dimensional sinograms followed by a two-dimensional filtered back-projection with a ramp filter resulting in a voxel size of 0.4 × 0.4 × 0.796 mm^3 was used to reconstruct the PET data. Using AMIDE software, brain, right lung, left kidney, urinary bladder, liver, duodenum, intestine, and gall bladder were manually outlined on the PET images to derive concentration-time curves expressed in units of standardized uptake value (SUV = (radioactivity per g/injected radioactivity) × body weight). In addition, the left ventricle of the heart was outlined to obtain an image-derived blood curve. For all organs, the area under the concentration-time curve (AUC) from 0 to 90 min after radiotracer injection was calculated using Prism 7 software (GraphPad Software, La Jolla, CA, USA) and organ-to-blood AUC ratios were calculated. From the log-transformed concentration-time curves in blood, brain, lung, kidney, and liver, the elimination rate constant (kelimination) of radioactivity was determined by linear regression analysis from 17.5 to 80 min after radiotracer injection. A graphical analysis method (integration plot) was used to estimate the rate constant for transfer of radioactivity from blood into different organs (brain, kidney, and liver, kuptake, ml/min/g tissue) using data measured from 0.3 to 3.5 min after radiotracer injection, as described in detail before. Moreover, the rate constant for tubular secretion of radioactivity (kurine, min^−1) was determined from 12.5 to 65 min after radiotracer injection using integration plot analysis.
# [7] = system: Abcc4; test: 6-bromo-7-[^11C]methylpurine PET in Abcc4^(−/−) mice; assay type: in vivo; settings: Abcc4^(−/−) vs wild-type mice
# Method: as §1, §2
# The PET data were sorted into 25 frames with a duration increasing from 5 s to 20 min. […] Using AMIDE software, brain, right lung, left kidney, urinary bladder, liver, duodenum, intestine, and gall bladder were manually outlined on the PET images to derive concentration-time curves expressed in units of standardized uptake value (SUV = (radioactivity per g/injected radioactivity) × body weight). […] From the log-transformed concentration-time curves in blood, brain, lung, kidney, and liver, the elimination rate constant (kelimination) of radioactivity was determined by linear regression analysis from 17.5 to 80 min after radiotracer injection. A graphical analysis method (integration plot) was used to estimate the rate constant for transfer of radioactivity from blood into different organs (brain, kidney, and liver, kuptake, ml/min/g tissue) using data measured from 0.3 to 3.5 min after radiotracer injection, as described in detail before. […]
# [8] = Baseline 6-bromo-7-[^11C]methylpurine PET in vehicle-treated wild-type mice; assay type: in vivo
# Method: as §1, §2, §3
# [9] = target: T1, Abcc1; set-up: method as in PMID 23596979, PMID 18985052; settings: cited from earlier work
# [10] = Abcc1^(−/−) relative to wild-type mice ref 12, 13
# T1 sequence (O35379 whole entry): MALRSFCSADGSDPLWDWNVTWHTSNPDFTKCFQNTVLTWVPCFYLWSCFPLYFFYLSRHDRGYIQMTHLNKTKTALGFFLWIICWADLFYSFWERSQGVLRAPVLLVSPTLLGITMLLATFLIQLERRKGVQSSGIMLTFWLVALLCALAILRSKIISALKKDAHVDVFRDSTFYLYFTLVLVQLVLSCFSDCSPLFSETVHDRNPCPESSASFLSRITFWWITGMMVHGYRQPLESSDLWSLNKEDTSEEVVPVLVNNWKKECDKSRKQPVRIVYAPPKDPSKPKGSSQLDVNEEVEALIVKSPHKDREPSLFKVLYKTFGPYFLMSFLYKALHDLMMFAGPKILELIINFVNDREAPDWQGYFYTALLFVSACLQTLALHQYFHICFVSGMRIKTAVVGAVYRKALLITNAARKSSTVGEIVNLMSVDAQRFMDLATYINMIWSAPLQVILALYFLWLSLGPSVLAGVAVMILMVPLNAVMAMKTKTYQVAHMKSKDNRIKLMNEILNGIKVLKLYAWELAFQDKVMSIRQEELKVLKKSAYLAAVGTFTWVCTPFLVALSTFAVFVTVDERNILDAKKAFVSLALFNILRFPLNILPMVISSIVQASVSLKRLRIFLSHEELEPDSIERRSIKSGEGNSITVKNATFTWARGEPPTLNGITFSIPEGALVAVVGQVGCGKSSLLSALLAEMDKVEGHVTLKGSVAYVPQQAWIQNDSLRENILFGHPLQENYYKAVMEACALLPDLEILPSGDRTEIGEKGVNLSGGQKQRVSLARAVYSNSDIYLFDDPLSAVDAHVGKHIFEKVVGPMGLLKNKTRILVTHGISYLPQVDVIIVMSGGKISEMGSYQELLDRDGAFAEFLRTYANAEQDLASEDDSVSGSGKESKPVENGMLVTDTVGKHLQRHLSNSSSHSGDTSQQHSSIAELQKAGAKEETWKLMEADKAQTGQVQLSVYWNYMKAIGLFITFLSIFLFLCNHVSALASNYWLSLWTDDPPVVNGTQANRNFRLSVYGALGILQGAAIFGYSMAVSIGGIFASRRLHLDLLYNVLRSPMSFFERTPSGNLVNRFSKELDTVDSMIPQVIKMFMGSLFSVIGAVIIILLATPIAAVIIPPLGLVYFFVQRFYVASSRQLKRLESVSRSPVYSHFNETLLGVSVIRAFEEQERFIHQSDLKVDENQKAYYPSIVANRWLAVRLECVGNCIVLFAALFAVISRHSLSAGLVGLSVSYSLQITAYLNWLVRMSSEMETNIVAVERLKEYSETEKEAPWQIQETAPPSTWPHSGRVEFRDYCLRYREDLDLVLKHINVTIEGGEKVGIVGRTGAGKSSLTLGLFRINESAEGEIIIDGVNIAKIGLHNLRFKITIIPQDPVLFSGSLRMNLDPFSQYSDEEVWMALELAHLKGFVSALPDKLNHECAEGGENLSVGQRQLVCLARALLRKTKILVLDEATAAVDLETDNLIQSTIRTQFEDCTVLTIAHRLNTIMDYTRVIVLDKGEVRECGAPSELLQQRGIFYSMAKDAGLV
smiles,measurement,setting,value
Cn1cnc2ncnc(SC[C@H](NC(=O)CC[C@H](N)C(=O)O)C(=O)NCC(=O)O)c21 [S-(6-(7-[^11C]methylpurinyl))glutathione],Percentage of S-(6-(7-[^11C]methylpurinyl))glutathione in bile,[1]; Abcc1^(−/−) mice,79 ± 1%
same,Percentage of S-(6-(7-[^11C]methylpurinyl))glutathione in brain,[1]; Abcc1^(−/−) mice,52 ± 0.4%
same,Percentage of S-(6-(7-[^11C]methylpurinyl))glutathione in kidney,[1]; Abcc1^(−/−) mice,63 ± 1%
same,Percentage of S-(6-(7-[^11C]methylpurinyl))glutathione in liver,[1]; Abcc1^(−/−) mice,32 ± 4%
same,Percentage of S-(6-(7-[^11C]methylpurinyl))glutathione in urine,[1]; Abcc1^(−/−) mice,63 ± 3^a %
same,Percentage of S-(6-(7-[^11C]methylpurinyl))glutathione in plasma,[1]; Abcc1^(−/−) mice,43 ± 2^a %
same,Percentage of S-(6-(7-[^11C]methylpurinyl))glutathione in bile,[1]; wild-type mice,81 ± 5%
same,Percentage of S-(6-(7-[^11C]methylpurinyl))glutathione in brain,[1]; wild-type mice,60 ± 8%
same,Percentage of S-(6-(7-[^11C]methylpurinyl))glutathione in kidney,[1]; wild-type mice,58 ± 2%
same,Percentage of S-(6-(7-[^11C]methylpurinyl))glutathione in liver,[1]; wild-type mice,37 ± 2%
same,Percentage of S-(6-(7-[^11C]methylpurinyl))glutathione in urine,[1]; wild-type mice,77 ± 4%
same,Percentage of S-(6-(7-[^11C]methylpurinyl))glutathione in plasma,[1]; wild-type mice,51 ± 2%
"CN(C)C(=O)CCS[C@H](SCCC(=O)O)c1cccc(/C=C/c2ccc3ccc(Cl)cc3n2)c1 (single isomer, unassigned) [(R)-enantiomer of MK571]",Apparent tissue unbound fraction,[2],0.18
"CN(C)C(=O)CCS[C@@H](SCCC(=O)O)c1cccc(/C=C/c2ccc3ccc(Cl)cc3n2)c1 (single isomer, unassigned) [(S)-enantiomer of MK571]",Apparent tissue unbound fraction,[2],0.33
CN(C)C(=O)CCSC(SCCC(=O)O)c1cccc(/C=C/c2ccc3ccc(Cl)cc3n2)c1 (stereo not drawn) [MK571],concentration at 120 min,"[3]; C57BL/6J, kidney, Kidney unbound concentration of MK571, mice, from rat tissue unbound fraction of (R)-enantiomer",98 µM
same,concentration at 120 min,"[3]; C57BL/6J, kidney, Kidney unbound concentration of MK571, mice, from rat tissue unbound fraction of (S)-enantiomer",180 µM
same,concentration at 120 min,"[3]; C57BL/6J, kidney, Mean total MK571 concentration in the kidneys, wild-type mice, as restated in discussion",544 µM
same,concentration at 120 min,"[3]; kidney, MK571 concentration in kidneys, wild-type mice, approximately 120 min after 300 mg/kg i.p.",544 ± 58 µM
same,concentration at 120 min,"[3]; plasma, MK571 concentration in plasma, wild-type mice, approximately 120 min after 300 mg/kg i.p.",251 ± 58 µM
same,IC50,[4],4 µM
same,IC50,[5],10 µM
[11CH3]n1cnc2ncnc(Br)c21 [6-bromo-7-[^11C]methylpurine],Unchanged 6-bromo-7-[^11C]methylpurine in tissues and fluids,"[1]; mouse, in vivo, 15 min",In none of the investigated tissues and fluids unchanged 6-bromo-7-[^11C]methylpurine could be detected
same,Plasma-to-blood ratio of radioactivity,"[6]; Abcc1^(−/−) mice, venous blood at end of PET scan",0.60 ± 0.04
same,Decrease in kurine,[6]; Abcc1^(−/−) vs wild-type mice,3.4 fold
same,Decrease in plasma-to-blood ratio of radioactivity,[6]; Abcc1^(−/−) vs wild-type mice,2.4 fold
same,Increase in blood AUC,[6]; Abcc1^(−/−) vs wild-type mice,3.0 fold
same,"Increase in kuptake, liver",[6]; Abcc1^(−/−) vs wild-type mice,1.6 fold
same,"Reduction in kelimination, blood",[6]; Abcc1^(−/−) vs wild-type mice,3.6 fold
same,"Reduction in kelimination, lungs",[6]; Abcc1^(−/−) vs wild-type mice,5.7 fold
same,"Reduction in kelimination,brain",[6]; Abcc1^(−/−) vs wild-type mice,9.4 fold
same,"Reduction in kelimination,brain",[6]; heterozygous Abcc1^(+/−) vs wild-type mice,1.3 fold
same,"Decrease in kelimination, brain",[7],1.5 fold
same,"Decrease in kelimination, kidneys",[7],1.4 fold
same,Decrease in kurine,[7],2.3 fold
same,"kelimination,brain",[8]; vehicle-treated wild-type mice,1.37 ± 0.27 h⁻¹
same,"kuptake,brain",[8]; vehicle-treated wild-type mice,0.113 ± 0.028 ml/min/g brain
same,"Extraction ratio, liver","[8]; vehicle-treated wild-type mice, assuming hepatic blood flow 1.0 ml/min/g tissue",0.21
same,"Extraction ratio, kidneys","[8]; vehicle-treated wild-type mice, assuming renal blood flow 4.1 ml/min/g tissue",0.18
same,Plasma-to-blood ratio of radioactivity,"[8]; wild-type mice, venous blood at end of PET scan",1.46 ± 0.14
same,"Reduction in kelimination of radioactivity, brain",[9]; [10],9.3 fold
same,"Reduction in kelimination of radioactivity, lungs",[9]; [10],17.2 fold
same,Conversion into glutathione conjugate in brain and lungs,"[9]; mice, within 15 min after i.v. injection ref 12, 13",almost quantitatively converted into its glutathione conjugate

# Source: paper PMC6449286, “Influence of Multidrug Resistance-Associated Proteins on the Excretion of the ABCC1 Imaging Probe 6-Bromo-7-[^11C]Methylpurine in Mice” (Molecular Imaging and Biology, 2018)
